Assay results reported in patent US20100204045A1, “Systemicity Enhancers” (BASF SE, priority 2007, published 2010).

Test system: aphids
Assay: Root systemicity of fipronil with polymers: wheat plants in vermiculite drenched, infested with aphids, aphid population counted
Format: in vivo, aphids on wheat plants
Details: 4 days after infestation, relative to plants not treated with fipronil
Protocol: To test the root systemicity of fipronil with polymers according to the invention, wheat plants in vermiculite were drenched with 20 ml fipronil/polymer (1:1 wt) solutions in Hoagland solution/acetone mixtures (0.6 v % acetone). Two fipronil and polymer concentrations were used, 3 ppm and 6 ppm. As reference fipronil solutions in Hoagland solution/acetone mixtures without polymer were used. Hoagland solution consists of the following ingredients:
0.25 v % of 1M KNO3 solution in water, 0.1 v % of 1 M MgSO4 solution in water, 0.05 v % of 1M KH2PO4 solution in water, 0.25 v % 1M Ca(NO3)2) solution in water, 0.05 v % of a trace solution consisting of 2.86 g/l H3BO3, 1.81 g/l MnCl2*4H2O, 0.22 g/l ZnSO4*7H2O, 0.08 g/l CuSO4*5H2O, 0.016 g/l MoO3 in water, 0.075 v % Sequestrene 138 Fe consisting of 30 g/l sodium ferric ethylenediamine di-(o-hydroxyphenylacetate) in water, 99.225 v % water sterilized and pH adjusted to 6-6.5 with NaOH.
The plants were then infested with aphids. After 4 days the aphid population on the wheat plants was counted. The results of fipronil and fipronil with polymer are related to the aphid population on plants that had not been treated with fipronil.

Work on `N#Cc1nn(-c2c(Cl)cc(C(F)(F)F)cc2Cl)c(N)c1[S+]([O-])C(F)(F)F` (stereo not shown) [Reference A, fipronil] yielded an Aphid population (Table 1, 3 ppm fipronil (and polymer, 1:1 wt)) of 51%, an Aphid population (Table 1, 6 ppm fipronil (and polymer, 1:1 wt)) of 23% and an Aphid population (Table 2, 3 ppm fipronil (and polymer, 1:1 wt)) of 23%. The Aphid population (Table 2, 6 ppm fipronil (and polymer, 1:1 wt)) was 12%.
